Test results from patent publication US11078170B2 (Assembly Biosciences, Inc., priority 2017, dated 2021).

Tested on: HBV viral production from HepAD38 cells
Experiment: Activity of test compounds on viral production from HepAD38 cells (viral load by qPCR of HBV core sequence in supernatant)
Assay type: cell-based
Settings: Hepatitis B virus, 120 h, 5 days incubation, HBV DNA in supernatant by qPCR, top concentration 10 μM, read-out: Viral Load EC50 Activity range
Outline: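 EC50 and CC50 come from four-parameter fits of supernatant viral load and CellTiter-Glo viability, respectively. Viral load was measured by core-region TaqMan qPCR against HBV DNA standards and compared with DMSO controls. Tet-free HepAD38 cells (50,000/well, 2% FBS) were exposed to compound, highest 10 μM, for 5 days at 37° C.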

Row | Structure (SMILES) | EC50 [nM]
1 | Cc1cc(C2CC(C(=O)Nc3ccc(F)c(Cl)c3)N(C)S(=O)(=O)N2)sc1-c1cnn(C)c1 (racemic) [HBV-CSU-300, Cis-N-(3-Chloro-4-fluorophenyl)-5-(4-methyl-5-(1-methyl-1H-pyrazol-4-yl)thiophen-2-yl)-2-methyl-1,2,6-thiadiazinane-3-carboxamide 1,1-dioxide] | < 1000
2 | Cc1sc(C2CC(C(=O)Nc3ccc(F)c(Cl)c3)N(C)S(=O)(=O)N2)cc1-c1cnn(C)c1 (racemic) [HBV-CSU-304, Cis-N-(3-Chloro-4-fluorophenyl)-2-methyl-5-(5-methyl-4-(1-methyl-1H-pyrazol-4-yl)thiophen-2-yl)-1,2,6-thiadiazinane-3-carboxamide 1,1-dioxide] | < 1000
3 | CCc1sc(C2CC(C(=O)Nc3ccc(F)c(Cl)c3)N(C)S(=O)(=O)N2)cc1-c1cnn(C)c1 (racemic) [HBV-CSU-305, Cis-N-(3-Chloro-4-fluorophenyl)-5-(5-ethyl-4-(1-methyl-1H-pyrazol-4-yl)thiophen-2-yl)-2-methyl-1,2,6-thiadiazinane-3-carboxamide 1,1-dioxide] | < 1000
4 | Cc1c(-c2ccc(C3CC(C(=O)Nc4ccc(F)c(Cl)c4)N(C)S(=O)(=O)N3)s2)cnn1C (racemic) [HBV-CSU-312, Cis-N-(3-chloro-4-fluorophenyl)-5-(5-(1,5-dimethyl-1H-pyrazol-4-yl)thiophen-2-yl)-2-methyl-1,2,6-thiadiazinane-3-carboxamide 1,1-dioxide] | < 1000
5 | Cc1nn(C)c(C)c1-c1csc(C2CC(C(=O)Nc3ccc(F)c(Cl)c3)N(C)S(=O)(=O)N2)c1 (racemic) [HBV-CSU-317, Cis-N-(3-chloro-4-fluorophenyl)-2-methyl-5-(4-(1,3,5-trimethyl-1H-pyrazol-4-yl)thiophen-2-yl)-1,2,6-thiadiazinane-3-carboxamide 1,1-dioxide] | < 1000
6 | CN1C(C(=O)Nc2ccc(F)c(Cl)c2)CC(c2ccc(-c3ncn(C)n3)s2)NS1(=O)=O (racemic) [HBV-CSU-322, Cis-N-(3-Chloro-4-fluorophenyl)-2-methyl-5-(5-(1-methyl-1H-1,2,4-triazol-3-yl)thiophen-2-yl)-1,2,6-thiadiazinane-3-carboxamide 1,1-dioxide] | < 1000
7 | CN1C(C(=O)Nc2ccc(F)c(Cl)c2)CC(c2ccc(-c3ncnn3C)s2)NS1(=O)=O (racemic) [HBV-CSU-323, Cis-N-(3-Chloro-4-fluorophenyl)-2-methyl-5-(5-(1-methyl-1H-1,2,4-triazol-5-yl)thiophen-2-yl)-1,2,6-thiadiazinane-3-carboxamide 1,1-dioxide] | < 1000
8 | CN1C(C(=O)Nc2ccc(F)c(Cl)c2)CC(c2ccc(-c3nncn3C)s2)NS1(=O)=O (racemic) [HBV-CSU-324, Cis-N-(3-Chloro-4-fluorophenyl)-2-methyl-5-(5-(4-methyl-4H-1,2,4-triazol-3-yl)thiophen-2-yl)-1,2,6-thiadiazinane-3-carboxamide 1,1-dioxide] | < 1000
9 | CN1C(C(=O)Nc2ccc(F)c(Cl)c2)CC(c2cc(-c3cnn(C(F)(F)F)c3)cs2)NS1(=O)=O (racemic) [HBV-CSU-325, Cis-N-(3-Chloro-4-fluorophenyl)-2-methyl-5-(4-(1-(trifluoromethyl)-1H-pyrazol-4-yl)thiophen-2-yl)-1,2,6-thiadiazinane-3-carboxamide 1,1-dioxide] | < 1000
10 | CN1C(C(=O)Nc2ccc(F)c(Cl)c2)CC(c2cc(-c3ncn(C)n3)cs2)NS1(=O)=O (racemic) [HBV-CSU-326, Cis-N-(3-chloro-4-fluorophenyl)-2-methyl-5-(4-(1-methyl-1H-1,2,4-triazol-3-yl)thiophen-2-yl)-1,2,6-thiadiazinane-3-carboxamide 1,1-dioxide] | < 1000
11 | CN1C(C(=O)Nc2ccc(F)c(Cl)c2)CC(c2cc(-c3ncnn3C)cs2)NS1(=O)=O (racemic) [HBV-CSU-327, Cis-N-(3-Chloro-4-fluorophenyl)-2-methyl-5-(4-(1-methyl-1H-1,2,4-triazol-5-yl)thiophen-2-yl)-1,2,6-thiadiazinane-3-carboxamide 1,1-dioxide] | < 1000
12 | CN1C(C(=O)Nc2ccc(F)c(Cl)c2)CC(c2cc(-c3nncn3C)cs2)NS1(=O)=O (racemic) [HBV-CSU-328, Cis-N-(3-chloro-4-fluorophenyl)-2-methyl-5-(4-(4-methyl-4H-1,2,4-triazol-3-yl)thiophen-2-yl)-1,2,6-thiadiazinane-3-carboxamide 1,1-dioxide] | < 1000
13 | CN1C(C(=O)Nc2ccc(F)c(Cl)c2)CC(c2ccc3c(c2)ncn3C)NS1(=O)=O (racemic) [HBV-CSU-360, Cis-N-(3-chloro-4-fluorophenyl)-2-methyl-5-(1-methyl-1H-benzo[d]imidazol-5-yl)-1,2,6-thiadiazinane-3-carboxamide 1,1-dioxide] | < 1000
14 | CN1C(C(=O)Nc2ccc(F)c(Cl)c2)CC(c2nc3ccccc3s2)NS1(=O)=O (racemic) [HBV-CSU-364, Cis-5-(benzo[d]thiazol-2-yl)-N-(3-chloro-4-fluorophenyl)-2-methyl-1,2,6-thiadiazinane-3-carboxamide 1,1-dioxide] | < 1000
15 | [2H]C([2H])([2H])N1C(C(=O)Nc2ccc(F)c(Cl)c2)CC(c2ccc(Br)s2)NS1(=O)=O (racemic) [HBV-CSU-370, Cis-5-(5-bromothiophen-2-yl)-N-(3-chloro-4-fluorophenyl)-2-(methyl-d3)-1,2,6-thiadiazinane-3-carboxamide 1,1-dioxide] | < 1000
16 | CN(C)CCN1[C@@H](c2cccs2)C[C@@H](C(=O)Nc2ccc(F)c(Cl)c2)N(C)S1(=O)=O (relative stereo) [HBV-CSU-043-ISO-I, Cis-N-(3-chloro-4-fluorophenyl)-6-(2-(dimethylamino)ethyl)-2-methyl-5-(thiophen-2-yl)-1,2,6-thiadiazinane-3-carboxamide 1,1-dioxide] | > 5000
17 | CN1[C@@H](C(=O)Nc2ccc(F)c(Cl)c2)C[C@@H](c2ccsn2)NS1(=O)=O (relative stereo) [HBV-CSU-056-ISO-II, Cis-N-(3-chloro-4-fluorophenyl)-5-(isothiazol-3-yl)-2-methyl-1,2,6-thiadiazinane-3-carboxamide 1,1-dioxide] | > 5000
18 | CC(C)(C)OCCN1[C@@H](C(=O)Nc2ccc(F)c(Cl)c2)C[C@@H](c2nccs2)NS1(=O)=O (relative stereo) [HBV-CSU-071-ISO-II, Cis-2-(2-(tert-Butoxy)ethyl)-N-(3-chloro-4-fluorophenyl)-5-(thiazol-2-yl)-1,2,6-thiadiazinane-3-carboxamide 1,1-dioxide] | 1000 to 5000
19 | C#CCN1[C@H](C(=O)Nc2ccc(F)c(Cl)c2)C[C@H](c2nccs2)NS1(=O)=O (relative stereo) [HBV-CSU-089-ISO-I, Cis-N-(3-chloro-4-fluorophenyl)-2-(prop-2-yn-1-yl)-5-(thiazol-2-yl)-1,2,6-thiadiazinane-3-carboxamide 1,1-dioxide] | < 1000
20 | O=C(Nc1ccc(F)c(Cl)c1)[C@H]1C[C@@H](c2nccs2)NS(=O)(=O)N1CCOCc1ccccc1 (relative stereo) [HBV-CSU-095-ISO-I, Cis-2-(2-(benzyloxy)ethyl)-N-(3-chloro-4-fluorophenyl)-5-(thiazol-2-yl)-1,2,6-thiadiazinane-3-carboxamide 1,1-dioxide] | 1000 to 5000
21 | O=C(Nc1ccc(F)c(Cl)c1)[C@@H]1C[C@H](c2nccs2)NS(=O)(=O)N1CCO (relative stereo) [HBV-CSU-097-ISO-II, Cis-N-(3-Chloro-4-fluorophenyl)-2-(2-hydroxyethyl)-5-(thiazol-2-yl)-1,2,6-thiadiazinane-3-carboxamide 1,1-dioxide] | > 5000
22 | CCN(CC)CCCN1[C@H](C(=O)Nc2ccc(F)c(Cl)c2)C[C@H](c2nccs2)NS1(=O)=O (relative stereo) [HBV-CSU-101-ISO-II, Cis-N-(3-Chloro-4-fluorophenyl)-2-(3-(diethylamino)propyl)-5-(thiazol-2-yl)-1,2,6-thiadiazinane-3-carboxamide 1,1-dioxide] | > 5000
23 | CN1[C@@H](C(=O)Nc2ccc(F)c(Cl)c2)C[C@@H](c2ccc(-c3ccccc3)s2)NS1(=O)=O (relative stereo) [HBV-CSU-116-ISO-II, Cis-N-(3-chloro-4-fluorophenyl)-2-methyl-5-(5-phenylthiophen-2-yl)-1,2,6-thiadiazinane-3-carboxamide 1,1-dioxide] | 1000 to 5000
24 | CCOCCN1[C@H](C(=O)Nc2ccc(F)c(Cl)c2)C[C@H](c2nccs2)NS1(=O)=O (relative stereo) [HBV-CSU-142-ISO-II, Cis-N-(3-Chloro-4-fluorophenyl)-2-(2-ethoxyethyl)-5-(thiazol-2-yl)-1,2,6-thiadiazinane-3-carboxamide 1,1-dioxide] | < 1000
25 | CN1[C@@H](C(=O)Nc2ccc(F)c(Cl)c2)C[C@@H](c2ccc(-c3ccc(NS(C)(=O)=O)cc3)s2)NS1(=O)=O (relative stereo) [HBV-CSU-163-ISO-II, Cis-N-(3-chloro-4-fluorophenyl)-2-methyl-5-(5-(4-(methylsulfonamido)phenyl)thiophen-2-yl)-1,2,6-thiadiazinane-3-carboxamide 1,1-dioxide] | < 1000
26 | CN1[C@@H](C(=O)Nc2ccc(F)c(Cl)c2)C[C@@H](c2ncc(-c3ccc(NS(C)(=O)=O)cc3)s2)NS1(=O)=O (relative stereo) [HBV-CSU-179, Cis-N-(3-Chloro-4-fluorophenyl)-2-methyl-5-(5-(4-(methylsulfonamido)phenyl)thiazol-2-yl)-1,2,6-thiadiazinane-3-carboxamide 1,1-dioxide] | < 1000
27 | CN1[C@H](C(=O)Nc2ccc(F)c(Cl)c2)C[C@H](c2ccc(OCC(=O)O)cc2)NS1(=O)=O (relative stereo) [HBV-CSU-216-ISO-I, Cis-2-(4-(5-((3-Chloro-4-fluorophenyl)carbamoyl)-6-methyl-1,1-dioxido-1,2,6-thiadiazinan-3-yl)phenoxy)acetic acid] | 1000 to 5000
